Data on 29 compounds can be found in patent publication US12673944B2, “Compounds having inhibitory activity against glucosylceramide synthase or pharmaceutically acceptable salt thereof, processes for preparing the same, and pharmaceutical compositions comprising the same” (YUHAN CORPORATION, priority 2019, dated 2026).

The IC50 is the concentration at which inhibition is half-maximal. The low end stands for inhibition by little substance, the high end for a need for much substance.

Assay [1] deals with GM1 production in Jurkat cells. The assay can be described thus: cells. It is filed as cell-based. Conditions: Homo sapiens, Jurkat, 72 h.
Assay [2] deals with T1, glucosylceramide synthase (GCS) (Homo sapiens, UniProt Q16739).
T1 construct: The obtained supernatant was used; host or cells: A549 cells (lysate supernatant after sonication)
T1 sequence (Q16739 1-394): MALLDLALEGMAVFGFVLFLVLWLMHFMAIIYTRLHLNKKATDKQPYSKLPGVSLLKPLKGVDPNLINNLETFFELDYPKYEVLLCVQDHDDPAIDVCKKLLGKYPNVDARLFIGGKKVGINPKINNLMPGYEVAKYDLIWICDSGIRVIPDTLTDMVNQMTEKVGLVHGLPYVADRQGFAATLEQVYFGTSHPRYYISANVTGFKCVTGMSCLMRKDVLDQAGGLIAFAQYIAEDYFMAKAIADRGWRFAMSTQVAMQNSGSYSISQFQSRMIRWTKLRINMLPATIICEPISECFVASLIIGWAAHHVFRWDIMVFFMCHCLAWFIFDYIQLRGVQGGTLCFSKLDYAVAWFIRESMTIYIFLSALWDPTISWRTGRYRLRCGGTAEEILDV
The assay can be described thus: GCS enzyme inhibition assay (A549 cell lysate, NBD C6-ceramide, HPLC fluorescence). It is filed as biochemical. Conditions: inhibitory activity against GCS, 37° C., 90 minutes. The method, boiled down: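 A549 cell lysate (50 mM HEPES pH 7.3) served as GCS source; reactions ran 90 min at 37° C, were stopped with chloroform/methanol and lipids extracted. Activity taken as GlcCer/(Cer+GlcCer) peak area, normalised between DMSO and ibiglustat controls.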

As for `CC1(C)COc2cc(-c3ccc(OCc4ccccc4)cc3)ccc2C1NC(=O)O[C@@H]1CN2CCC1CC2` (stereo partly drawn) [Example 276, (S)-quinuclidin-3-yl (7-(4-(benzyloxy)phenyl)-3,3-dimethylchroman-4-yl)carbamate], the IC50 in assay [1] came to 1.3 nM; in assay [2] it was 0.54 nM.

For `CC1(C)COc2cc(-c3cccc(OCc4ccccc4)c3)ccc2C1NC(=O)O[C@@H]1CN2CCC1CC2` (stereo partly drawn) [Example 277, (S)-quinuclidin-3-yl (7-(3-(benzyloxy)phenyl)-3,3-dimethylchroman-4-yl)carbamate], the IC50 in assay [1] came out at 0.9 nM; in assay [2], 0.65 nM.

For the compound `CC1(C)COc2cc(-c3ccc(F)nc3F)ccc2C1NC(=O)O[C@@H]1CN2CCC1CC2` (stereo partly drawn) [Example 278, (S)-quinuclidin-3-yl (7-(2,6-difluoropyridin-3-yl)-3,3-dimethylchroman-4-yl)carbamate], the IC50 in assay [1] is 12.4 nM; in assay [2], 2.19 nM.

`C=CCc1ccccc1-c1ccc2c(c1)OCC(C)(C)C2NC(=O)O[C@@H]1CN2CCC1CC2` (stereo partly drawn) [Example 279, (S)-quinuclidin-3-yl (7-(2-allylphenyl)-3,3-dimethylchroman-4-yl)carbamate]: the IC50 in assay [1] was found to be 6.2 nM; in assay [2] it was 0.73 nM.

For the compound `CC1(C)COc2cc(-c3ccc(CC#N)cc3)ccc2C1NC(=O)O[C@@H]1CN2CCC1CC2` (stereo partly drawn) [Example 280, (S)-quinuclidin-3-yl (7-(4-(cyanomethyl)phenyl)-3,3-dimethylchroman-4-yl)carbamate], the IC50 in assay [1] amounted to 9.3 nM; in assay [2], 0.62 nM.

With `CC1(C)COc2cc(-c3cccc(CC#N)c3)ccc2C1NC(=O)O[C@@H]1CN2CCC1CC2` (stereo partly drawn) [Example 281, (S)-quinuclidin-3-yl (7-(3-(cyanomethyl)phenyl)-3,3-dimethylchroman-4-yl)carbamate], the results for the IC50 in assay [1] and in assay [2] were 6.9 nM and 0.65 nM, respectively.

`CC1(C)COc2cc(/C=C/c3ccc(-c4ccccc4)cc3)ccc2C1NC(=O)O[C@@H]1CN2CCC1CC2` (stereo partly drawn) [Example 282, (S)-quinuclidin-3-yl (7-((E)-2-([1,1′-diphenyl]-4-yl)vinyl)-3,3-dimethylchroman-4-yl)carbamate]: the IC50 in assay [1] turned out to be 2 nM; in assay [2], 1.64 nM.

Turning to `CC1(C)COc2cc(-c3cnc(C4CC4)nc3)ccc2C1NC(=O)O[C@@H]1CN2CCC1CC2` (stereo partly drawn) [Example 283, (S)-quinuclidin-3-yl (7-(2-cyclopropylpyrimidin-5-yl)-3,3-dimethylchroman-4-yl)carbamate], the figures for the IC50 in assay [1] and in assay [2] were 25.6 nM and 2.2 nM, respectively.

For `CC1(C)COc2cc(/C=C/c3ccc(C(F)(F)F)cc3)ccc2C1NC(=O)O[C@@H]1CN2CCC1CC2` (stereo partly drawn) [Example 284, (S)-quinuclidin-3-yl (3,3-dimethyl-7-((E)-4-(trifluoromethyl)styryl)chroman-4-yl)carbamate], the figures for the IC50 in assay [1] and in assay [2] were 0.5 nM and 0.91 nM, respectively.

For the compound `Cc1cc(C)c(Cl)c(-c2ccc3c(c2)OCC(C)(C)C3NC(=O)O[C@@H]2CN3CCC2CC3)c1` (stereo partly drawn) [Example 285, (S)-quinuclidin-3-yl (7-(2-chloro-3,5-dimethylphenyl)-3,3-dimethylchroman-4-yl)carbamate], the IC50 came out at 9.7 nM in assay [1] and 1.96 nM in assay [2].

As for `CC1(C)COc2cc(/C=C/c3ccc(F)cc3F)ccc2C1NC(=O)O[C@@H]1CN2CCC1CC2` (stereo partly drawn) [Example 286, (S)-quinuclidin-3-yl (7-((E)-2,4-difluorostyryl)-3,3-dimethylchroman-4-yl)carbamate], the IC50 in assay [1] came to 3.3 nM; in assay [2], 0.93 nM.

For `CCc1ccc(/C=C/c2ccc3c(c2)OCC(C)(C)C3NC(=O)O[C@@H]2CN3CCC2CC3)cc1` (stereo partly drawn) [Example 287, (S)-quinuclidin-3-yl (7-((E)-4-ethylstyryl)-3,3-dimethylchroman-4-yl)carbamate], the IC50 worked out at 1 nM in assay [1] and 0.79 nM in assay [2].

For `CCOc1ccc2cc(-c3ccc4c(c3)OCC(C)(C)C4NC(=O)O[C@@H]3CN4CCC3CC4)ccc2c1` (stereo partly drawn) [Example 288, (S)-quinuclidin-3-yl (7-(6-ethoxynaphthalen-2-yl)-3,3-dimethylchroman-4-yl)carbamate], the IC50 in assay [1] stood at 0.7 nM; in assay [2] it was 1.11 nM.

Take `CC1(C)COc2cc(/C=C/c3cccc(F)c3)ccc2C1NC(=O)O[C@@H]1CN2CCC1CC2` (stereo partly drawn) [Example 289, (S)-quinuclidin-3-yl (7-((E)-3-fluorostyryl)-3,3-dimethylchroman-4-yl)carbamate]: the IC50 in assay [1] was 1.4 nM; in assay [2] it was 0.61 nM.

`CC1(C)COc2cc(-c3cccc4c3oc3ccccc34)ccc2C1NC(=O)O[C@@H]1CN2CCC1CC2` (stereo partly drawn) [Example 290, (S)-quinuclidin-3-yl (7-(dibenzo[b,d]furan-4-yl)-3,3-dimethylchroman-4-yl)carbamate]: the values for the half-inhibitory concentration (IC50) in assay [1] and in assay [2] were 0.9 nM and 1.54 nM, respectively.

For `CC1(C)COc2cc(-c3ccc(C#N)c(F)c3)ccc2C1NC(=O)O[C@@H]1CN2CCC1CC2` (stereo partly drawn) [Example 291, (S)-quinuclidin-3-yl (7-(4-cyano-3-fluorophenyl)-3,3-dimethylchroman-4-yl)carbamate], the IC50 in assay [1] turned out to be 8.9 nM; in assay [2], 1.03 nM.

Turning to `CC1(C)COc2cc(-c3ccc(=O)n(Cc4ccccc4)c3)ccc2C1NC(=O)O[C@@H]1CN2CCC1CC2` (stereo partly drawn) [Example 292, (S)-quinuclidin-3-yl (7-(1-benzyl-6-oxo-1,6-dihydropyridin-3-yl)-3,3-dimethylchroman-4-yl)carbamate], the IC50 amounted to 30.2 nM in assay [1] and 1.38 nM in assay [2].

Regarding `CC1(C)COc2cc(/C=C/c3ccc(F)cc3)ccc2C1NC(=O)O[C@@H]1CN2CCC1CC2` (stereo partly drawn) [Example 293, (S)-quinuclidin-3-yl (7-((E)-4-fluorostyryl)-3,3-dimethylchroman-4-yl)carbamate], the IC50 in assay [1] was 3 nM; in assay [2], 1.23 nM.

As for `CC1(C)CC(NC(=O)O[C@@H]2CN3CCC2CC3)c2ccc(-c3cccc(C(F)(F)F)c3)cc2O1` (stereo partly drawn) [Example 295, (S)-quinuclidin-3-yl (2,2-dimethyl-7-(3-(trifluoromethyl)phenyl)chroman-4-yl)carbamate], the IC50 in assay [1] stood at 11.2 nM; in assay [2], 18.1 nM.

In the case of `CC1(C)CC(NC(=O)O[C@@H]2CN3CCC2CC3)c2ccc(-c3cccc(OC(F)(F)F)c3)cc2O1` (stereo partly drawn) [Example 296, (S)-quinuclidin-3-yl (2,2-dimethyl-7-(3-(trifluoromethoxy)phenyl)chroman-4-yl)carbamate], the IC50 was determined as 1.26 nM in assay [1] and 11.4 nM in assay [2].

On to `CC1(NC(=O)O[C@@H]2CN3CCC2CC3)CCOc2cc(-c3cccc(Cl)c3)ccc21` (stereo partly drawn) [Example 297, (S)-quinuclidin-3-yl (7-(3-chlorophenyl)-4-methylchroman-4-yl)carbamate], for which the IC50 in assay [1] came to 5.6 nM; in assay [2] it was 0.8 nM.

In the case of `CC1(NC(=O)O[C@@H]2CN3CCC2CC3)CCOc2cc(-c3cccc(F)c3)ccc21` (stereo partly drawn) [Example 298, (S)-quinuclidin-3-yl (7-(3-fluorophenyl)-4-methylchroman-4-yl)carbamate], the IC50 in assay [1] turned out to be 5.5 nM; in assay [2], 0.7 nM.

Consider `COc1cccc(-c2ccc3c(c2)OCCC3(C)NC(=O)O[C@@H]2CN3CCC2CC3)c1` (stereo partly drawn) [Example 299, (S)-quinuclidin-3-yl (7-(3-methoxyphenyl)-4-methylchroman-4-yl)carbamate], for which the IC50 in assay [1] worked out at 9.7 nM; in assay [2], 0.6 nM.

Regarding `CC(C)c1cccc(-c2ccc3c(c2)OCCC3(C)NC(=O)O[C@@H]2CN3CCC2CC3)c1` (stereo partly drawn) [Example 300, (S)-quinuclidin-3-yl (7-(3-isopropylphenyl)-4-methylchroman-4-yl)carbamate], the IC50 in assay [1] is 0.9 nM; in assay [2] it was 0.23 nM.

As to `COc1ccc(Cl)c(-c2ccc3c(c2)OCCC3(C)NC(=O)O[C@@H]2CN3CCC2CC3)c1` (stereo partly drawn) [Example 301, (S)-quinuclidin-3-yl (7-(2-chloro-5-methoxyphenyl)-4-methylchroman-4-yl)carbamate], the IC50 was 17.5 nM in assay [1] and 0.8 nM in assay [2].

As for `CCOc1ccc(-c2ccc3c(c2)OCCC3(C)NC(=O)O[C@@H]2CN3CCC2CC3)cc1` (stereo partly drawn) [Example 302, (S)-quinuclidin-3-yl (7-(4-ethoxyphenyl)-4-methylchroman-4-yl)carbamate], the IC50 in assay [1] is 2.6 nM; in assay [2] it was 0.8 nM.

In the case of `CN(C)c1cccc(-c2ccc3c(c2)OCCC3(C)NC(=O)O[C@@H]2CN3CCC2CC3)c1` (stereo partly drawn) [Example 303, (S)-quinuclidin-3-yl (7-(3-(dimethylamino)phenyl)-4-methylchroman-4-yl)carbamate], the figures for the IC50 in assay [1] and in assay [2] were 3.2 nM and 0.5 nM, respectively.

Turning to `CC1(NC(=O)O[C@@H]2CN3CCC2CC3)CCOc2cc(-c3coc4ccccc34)ccc21` (stereo partly drawn) [Example 304, (S)-quinuclidin-3-yl (7-(benzofuran-3-yl)-4-methylchroman-4-yl)carbamate], the values for the IC50 in assay [1] and in assay [2] were 2.1 nM and 0.38 nM, respectively.

Consider `CC1(NC(=O)O[C@@H]2CN3CCC2CC3)CCOc2cc(-c3cccc(C(F)(F)F)c3)ccc21` (stereo partly drawn) [Example 305, (S)-quinuclidin-3-yl (4-methyl-7-(3-(trifluoromethyl)phenyl)chroman-4-yl)carbamate], for which the figures for the IC50 in assay [1] and in assay [2] were 5.4 nM and 0.7 nM, respectively.
